In patent publication US20120195488A1, “Methods and Compositions Related to Cellular Assays” (University of utah Research Foundation, priority 2009, published 2012):

Assays:
Assay type in all cases: cell-based
γH2AX = experiment: Fraction of γH2AX positive cells in taxol treated MCF7 cells (multi-well immunofluorescence imaging)
Source text: (§1) Many cells (typically >1,000) over a very large field of view were imaged. At least two stainings were used simultaneously. An optional third staining, here propidium iodide (PI), was also used as a nuclear locator.
(§2) The cells were imaged in 3 channels which corresponded to the three stainings. The third channel was used for cell profiling. In a first data processing step, cells were automatically identified in the images by their signal and/or shape in one or both of the recorded channels. Alternatively, cells were identified using a nuclear counterstain and then the activator(s) were read. […] From the distributions S1(c) and S2(c), characteristic numbers were derived. For example (at the example of channel 1, same valid for channel 2).
Fraction of positive cells: F1=N1+/N
(§3) The imaging and analysis procedure were repeated for cells which were fixed at different time points t and under influence of different drug doses dd. For every condition (time point and drug dose), the parameters above were determined.
(§4) Hela, MCF7, as well as primary cells from a patient were cultured for growth in this assay. Cells were obtained and seeded initially at ˜100 cells per well/96 well plate . The cells were grown in DMEM, with 10% Fetal Falf Serum, ultra pure, along with 5% Pen/Strep. The cells after being plated were placed in an incubator at […]. with 5% CO2 and grown for a period of 28 hours to allow for adhesion and division . If the cell took to the plate and were growing normally they were allowed to continue for an additional 24 hours. […] Here, the experiment first staining for only one marker using a green label so that the read was unpolluted by any other color that could show cross reactivity with the green (as there is RED, PI staining the nucleus already, which has no cross reactivity), once the data was collected and the data satisfied that the independent signal was reproducible, a double staining was performed by adding the second marker and using a orange dye with a wavelength of 555. […]

p-ATM = experiment: Average p-ATM signal per cell in taxol treated MCF7 cells
Source text: as §1, §2
Average signal of all cells: <S1>
as §3
as §4, with “hours. Cells were then treated with either Taxol, Doxirubicin, or Ionizing Radiation or a combination of all 3.” for “hours.”

MCF7 cells = experiment: Total number of cells N in taxol treated MCF7 cells; details: for killing of cells (total number of cells): all drug doses (10 nm to 5 um)
Source text: as §1, §2, §3
Hela, MCF7, as well as primary cells from a patient were cultured for growth in this assay. Cells were obtained and seeded initially at ˜100 cells per well/96 well plate . The cells were grown in DMEM, with 10% Fetal Falf Serum, ultra pure, along with 5% Pen/Strep. The cells after being plated were placed in an incubator at […]. with 5% CO2 and grown for a period of 28 hours to allow for adhesion and division . If the cell took to the plate and were growing normally they were allowed to continue for an additional 24 hours. Cells were then treated with either Taxol, Doxirubicin, or Ionizing Radiation or a combination of all 3. All drugs were added in the logarithmic titrations shown in the data at time point zero. The cells were then collected (fixed with −20 degree methanol for 7 minutes, washed with PBS, washed again and stored in PBS until the entire plate of titrations were finished. After collection, the nucleus of each cell was stained using PI (far RED) by adding PI for 15 minutes and then washing 3× the cells with sterile PBS . Once the nuclei had been stained, each well was stained for either phosphor ATM or gamma H2AX or both using primary antibodies at a dilution of 1:1000 in a PBS/Block mix for 1 hour at 37 degrees. The cell were then washed 3× with PBS and then treated with the appropriate secondary . Here, the experiment first staining for only one marker using a green label so that the read was unpolluted by any other color that could show cross reactivity with the green (as there is RED, PI staining the nucleus already, which has no cross reactivity), once the data was collected and the data satisfied that the independent signal was reproducible, a double staining was performed by adding the second marker and using a orange dye with a wavelength of 555. […]

CC(=O)O[C@H]1C(=O)[C@@]2(C)[C@H]([C@H](OC(=O)c3ccccc3)[C@]3(O)C[C@H](OC(=O)[C@H](O)[C@@H](NC(=O)c4ccccc4)c4ccccc4)C(C)=C1C3(C)C)[C@]1(OC(C)=O)CO[C@@H]1C[C@@H]2O [Taxol]
time point at which γH2AX fluorescence reaches its lowest point (γH2AX; 5 um dose): 12 h | Emax (γH2AX; Homo sapiens, all 4 doses 10 nm, 100 nm, 1 um and 5 um, 1 hour pulse, 4 hour post treatment time point, read-out: maximum response, induction rate of γH2AX (fraction of γH2AX positive cells)): ~100% | effective on a population (γH2AX; highest dose): 30% | time at which average p-ATM signal per cell is lowest (p-ATM; 5 uM): approximately 4 hours | p-ATM fluorescent signal, initial elevation (maximum) (p-ATM; 5 um dose): ~2300 a.u. | p-ATM fluorescent signal, lowest point (p-ATM; 5 um dose, within 4 hours): ~1000 a.u. | killing of the entire cell population (MCF7 cells; 5 um dose): does not kill the entire population | time point at which cell killing was most effective (MCF7 cells; all drug doses): 4 h | killing of cells (total number of cells) (MCF7 cells): all treatments were effective in killing cells | killing of cells (total number of cells) (MCF7 cells; listed as taxol): kill cells in a titration dependent fashion
